The source of these data is patent US5853748A, “Pharmaceutical compositions” (priority 1994, dated 1998).

Read-outs that look alike come from different tables or passages of the source.

The conditions of data set [1]: for pH: water. An excerpt: (§1) The amount of agent necessary to adjust the pH to within the range contemplated is difficult to determine directly because the intestinal pH can vary between 5 to 7, and its aqueous content can vary, as can its intrinsic buffering capacity, which acts to maintain a low pH. Consequently considerations aimed at determining the appropriate quantity of agent controlling pH need to take into account a "worst-case" scenario. An indication may be obtained by observing the pH achieved upon adding a potential pH-adjusting agent to a 50 mM solution of MES (morpholino ethane sulphonic acid) adjusted to pH 6.0.
A 0.1M solution of sodium bicarbonate in distilled water was prepared (buffer solution). Similar 0.1M solutions of sodium acetate, sodium borate and sodium carbonate in distilled water were also prepared. These are also referred to in the examples as buffers.

The conditions of data set [2]: for pH: MES.
Excerpt: as §1

The conditions of data set [3]: sodium cholate (Kojima et al); cited from earlier work.
For data set [4] the following is noted: cited from earlier work.
Data set [5] in a line: In vivo efficacy study, salmon calcitonin, intrajejunal, pigs (plasma calcium). Also on record: species or system Pigs (large white×large white/landrace). Conditions: […] iu sCT intrajejunal in 2 ml, with 25 or 50 mg sodium chenodeoxy cholate, pH 7.5 or 6.5. As to the method: Dosing of salmon calcitonin (sCT) was administered by instillation via the indwelling cannula into the jejunum, followed by flushing with warm sterile water. 8 ml blood samples were removed at various times before and after dosing, and divided into two portions. One portion was allowed to clot at room temperature, and the serum removed and stored at -20° C. until ready for use. The other portion was transferred to heparinised tubes to which 4000 kiu aprotinin was added, and the plasma decanted after centrifugation and stored at -20° C. Serum calcium levels were measured colorimetrically after complexation with the calcium-sensitive chelating agent arsenazo III.
Nine animals were used in the study, and formulations were administered on three separate days, each separated by at least one day, on a random three-way crossover basis, so that all pigs received all three treatments.

For data set [6] the following is noted: at the pH values contemplated (7.5 to 9); cited from earlier work.
Data set [7] is described as follows: in vitro. As to conditions: human, hbss. On the procedure:
(§2) Test solutions were prepared containing various concentrations of a bile salt in either HBSS or in one of the 0.1M buffer solution. The following bile salts were tested:
(§3) A MTT stock solution was prepared at a concentration of 5 mg/ml in distilled water, which was then diluted 1:10 with TCM before use.
(§4) Test plates were set up by aliquotting 200 μl of a Caco-2 cell suspension containing 1×10^5 cells/ml into wells of a 96-well microtitre plate. The outermost wells on each plate were left blank, and filled with 200 μl saline, to counteract the effects of evaporation. The cells were is incubated in high glucose DMEM tissue culture medium (TCM) at 37° C., 5% CO2 in air, for 8 days, with feeding when necessary.
(§5) MTT is a tetrazolium salt which is converted by mitochondrial dehydrogenases in viable cells to form an insoluble purple crystal. Dead cells would not effect this conversion. Crystal formation can be quantified colorimetrically and used to asses mitochondrial activity and therefore cell viability. The preparation of MTT stock solution, test solutions and buffer solution is described above.
(§6) In this procedure, cells are first incubated with test materials and then incubated with MTT and measurements are made to determine the extent to which incubation with test materials has altered the mitochondrial activity of the cells. A two hour exposure period is used together with a three hour recovery period during which time staining is conducted.
(§7) TCM was removed from each well and replaced with 150 Al of the appropriate buffer.
(§8) Buffer was removed from wells in column 2 and replaced with 150 μl of test solutions at the highest concentration.
(§9) 150 μl of test solutions was added to each of wells in column 3, mixed gently by aspirating repeatedly, and 150 μl transferred to wells in column 4. This process was repeated down the plate to obtain two-fold serial dilutions of test material along each row. […]
(§10) Absorbances were measured on a plate reader as the difference between 550 and 650 nm, and readings compared with buffer controls to assess change in mitochondrial activity. […]

Data set [8] in a line: in vitro. Conditions: human, hbss. On the procedure: (§11) A neutral red stock solution was prepared at concentration of 0.5 mg/ml in DMEM (Dulbecco's Modified Eagle Medium) (pH 4.5) which was then diluted 1:10 with TCM (Tissue Culture Medium) or Hanks Balanced Salt Solution (HBSS) before use.
as §2
(§12) Test plates were set up by aliquotting 200 μl of a Caco-2 cell suspension containing 1×10^5 cells/ml into each well of a 96-well microtitre plate. The outermost wells were filled with 200 μl saline alone, to counteract the effects of evaporation. The cells were incubated in high glucose Dulbecco's modified eagles medium (DMEM) tissue culture medium (TCM) at […], 5% CO2 in air, for 8 days, with feeding where necessary. The cells were then used for performance of either an initial insult or a recovery study.
(§13) B. Recovery from Toxic Insult
(§14) Neutral red stain is actively taken up by viable cells and non-viable cells will not stain. Cells with increased cell membrane permeability will have a reduced stain content. […] A 2-hour exposure period is used together with a 3-hour recovery period in optimal growth material during which stain is taken up. The following protocol was followed:
(§15) TCM was removed from each well and replaced with 150 μl of the appropriate buffer.
as §8
(§16) 150 μof test solutions was added to each of wells in column 3, mixed gently by aspirating repeatedly, and 150 μl transferred to wells in column 4. This process was repeated down the plate to obtain two-fold serial dilutions of test material along each row. One row on each plate was allocated to HBSS as a control, and one row for a buffer control if necessary. The cells were incubated for 2 hours at 37° C. in CO2.
(§17) The supernatant liquid was then removed from cell monolayers in each well and replaced with 200 μl of stain.
(§18) The plates were incubated for 3 hours at 37° C., 5% CO2. […]
The source holds these as a separate data set.

Data set [9] can be described thus: in vitro. Conditions: human, hbss. As to the method:
as §11, §2
Test plates were set up by aliquotting 200 μl of a Caco-2 cell suspension containing 1×10^5 cells/ml into each well of a 96-well microtitre plate. The outermost wells were filled with 200 μl saline alone, to counteract the effects of evaporation. The cells were incubated in high glucose Dulbecco's modified eagles medium (DMEM) tissue culture medium (TCM) at […], 5% CO2 in air, for 8 days, with feeding where necessary. The cells were then used for performance of either an initial insult or a recovery study. […]
Neutral red stain is actively taken up by viable cells. Cells with more permeable membranes will lose stain into the bathing medium and thus cell membrane permeability can be directly assessed after exposure to the test material by quantifying the stain remaining in the cell. […]
In order to quantify the amount of stain remaining in the cells, absorbances were measured on a plate reader at 550 nm, and readings compared with buffer controls to assess leakage of the stain from the cells. […]
The source holds these as a separate data set.

Data set [10] relates to Caco-2 cells. Put plainly: in vitro. On the procedure: as §2, §3, §4, §5, §6, §7, §8, §9, §10
Data set [11] concerns Caco-2 cells. The data set can be described thus: in vitro. As to the method: as §11, §2, §12, §13, §14, §15, §8, §16, §17, §18
The source holds these as a separate data set.

Regarding `O=C(O)O` [Bicarbonate, sodium bicarbonate], the pH in data set [1] (0.002 M) turned out to be 8.86; in [1] (0.004 M), 8.67; in data set [1] (0.008 M), 8.63; in [1] (0.016 M), 8.57; in [1] (0.031 M) it was 8.55; in data set [1] (0.062 M), 8.49. In addition, the pH in data set [1] (0.500 M) stood at 8.16; in [1] (1.000 M), 8.02; in data set [2] (0.002 M), 6.42; in data set [2] (0.004 M), 6.58; in [2] (0.008 M) it was 6.86; in data set [2] (0.016 M), 7.14. The pH in [2] (0.031 M) worked out at 7.40; in data set [2] (0.062 M), 7.68; in [2] (0.500 M), 8.05; in [2] (1.000 M), 7.96. Further, the “pH of 0.1M solution” value in [1] (0.1M, confirmed at the end of each of the experiments) is on record as ~8.0. In data set [1] (saturated (<2M) in water), the “pH of saturated solution” value is 8.01. Also, the “pH in the gut” value in data set [2] (about 0.045M (about 40 mg sodium bicarbonate in 10 ml)) is “about 7.5”.
On to `C[C@H](CCC(=O)O)[C@H]1CC[C@H]2[C@@H]3[C@H](O)C[C@@H]4C[C@H](O)CC[C@]4(C)[C@H]3C[C@H](O)[C@]12C` [Cholate, sodium cholate], for which, in data set [3], the “release of cell membrane components” value was “accelerated”. The “absorption of various substances” value in data set [4] (sodium cholate (Kojima et al)) is “capable of increasing the absorption of various substances”.
Turning to somatostatin, the bioavailability of somatostatin entry in data set [4] (with a cholanic acid derivative such as chenodeoxycholic acid or ursodeoxycholic acid (GB-A-2244918)) was “can be improved”.
On to salmon calcitonin [sCT], for which the “efficacy of bile salts in enhancing uptake of calcitonin (plasma calcium concentration with time, FIG. 6)” value in data set [5] is “dependent on the concentration of bile salt present, and the pH at which it is administered”.
For `C[C@H](CCC(=O)NCC(=O)O)[C@H]1CC[C@H]2[C@@H]3[C@H](O)C[C@@H]4C[C@H](O)CC[C@]4(C)[C@H]3C[C@H](O)[C@]12C` [Glycocholate, sodium glycocholate], in data set [4] (in combination with taurocholate or glycocholate (Kakemi et al)), the “bioavailability of various substances” value was “could be increased”.
As to insulin, the solubility result in [6] was “poorly soluble”.
As for `C[C@H](CCC(=O)NCCS(=O)(=O)O)[C@H]1CC[C@H]2[C@@H]3CC[C@@H]4C[C@H](O)CC[C@]4(C)[C@H]3C[C@H](O)[C@]12C` [Taurodeoxycholate, sodium taurodeoxycholate], the MNTC at 2 h in data set [7], in data set [8] and in data set [9] was 313 µg/mL in each case.
Turning to `C[C@H](CCC(=O)NCC(=O)O)[C@H]1CC[C@H]2[C@@H]3CC[C@@H]4C[C@H](O)CC[C@]4(C)[C@H]3C[C@H](O)[C@]12C` [Glycodeoxycholate, sodium glycodeoxycholate], the MNTC at 2 h in data set [7], in data set [8] and in [9] was 313 µg/mL each time.
Consider `C[C@H](CCC(=O)O)[C@H]1CC[C@H]2[C@@H]3[C@H](O)C[C@@H]4C[C@H](O)CC[C@]4(C)[C@H]3CC[C@]12C` [Chenodeoxycholate, sodium chenodeoxycholate], for which the “percentage reduction in mitochondrial activity (FIG. 5)” value in data set [10] is reported as “a marked reduction in toxicity is achieved under conditions of elevated pH”. Besides, the “percentage release of stain (FIG. 4)” value in [11] is “much less stain is released from cells which have been incubated at pH above 7.5”.
